Measured values taken from patent US20020035061A1, “COMPOSITIONS AND METHODS FOR TREATING INFECTIONS USING CATIONIC PEPTIDES ALONE OR IN COMBINATION WITH ANTIBIOTICS” (priority 1996, published 2002).

Tested on: bacterial isolates
Experiment: microbe, parasite or virus in culture
Type: cell-based
Settings: for MBI 26 + Teicoplanin: in combination with Teicoplanin

KWKSFIKKLTSAAKKVVTTAKPLISS [MBI 26]
Peptide MIC Alone (1. Amikacin, A. baumannii ABI001): 8 µg/mL
Peptide MIC Alone (1. Amikacin, A. baumannii ABI003): 8 µg/mL
Peptide MIC Alone (1. Amikacin, S. maltophilia SMA021): 32 µg/mL
Peptide MIC Alone (1. Amikacin, S. maltophilia SMA037): >128 µg/mL
Peptide MIC Alone (2. Ceftriaxone, A. baumannii ABI002): 8 µg/mL
Peptide MIC Alone (2. Ceftriaxone, A. baumannii ABI005): 2 µg/mL
Peptide MIC Alone (2. Ceftriaxone, B. cepacia BC003): >128 µg/mL
Peptide MIC Alone (2. Ceftriaxone, E. cloacae ECL014): 8 µg/mL
Peptide MIC Alone (2. Ceftriaxone, E. cloacae ECL015): 32 µg/mL
Peptide MIC Alone (2. Ceftriaxone, K. pneumoniae KP003): 16 µg/mL
Peptide MIC Alone (2. Ceftriaxone, P. aeruginosa PA008): 128 µg/mL
Peptide MIC Alone (2. Ceftriaxone, P. aeruginosa PA024): 128 µg/mL
Peptide MIC Alone (2. Ceftriaxone, S. aureus SA025 MRSA): 1 µg/mL
Peptide MIC Alone (2. Ceftriaxone, S. epidermidis SE007): 32 µg/mL
Peptide MIC Alone (2. Ceftriaxone, S. epidermidis SE012): 64 µg/mL
Peptide MIC Alone (2. Ceftriaxone, S. maltophilia SMA019): 4 µg/mL
Peptide MIC Alone (2. Ceftriaxone, S. maltophilia SMA020): 4 µg/mL
Peptide MIC Alone (3. Ciprofloxacin, A. calcoaceticus 1): >64 µg/mL
Peptide MIC Alone (3. Ciprofloxacin, A. calcoaceticus 6): >32 µg/mL
Peptide MIC Alone (3. Ciprofloxacin, E. cloacae 13): >128 µg/mL
Peptide MIC Alone (3. Ciprofloxacin, E. cloacae 15): >32 µg/mL
Peptide MIC Alone (3. Ciprofloxacin, E. cloacae 16): >32 µg/mL
Peptide MIC Alone (3. Ciprofloxacin, P. aeruginosa 23): >32 µg/mL
Peptide MIC Alone (3. Ciprofloxacin, P. aeruginosa 24): >32 µg/mL
Peptide MIC Alone (3. Ciprofloxacin, P. aeruginosa PA41): 128 µg/mL
Peptide MIC Alone (3. Ciprofloxacin, P. aeruginosa PA77): 128 µg/mL
Peptide MIC Alone (3. Ciprofloxacin, S. aureus SA11): 128 µg/mL
Peptide MIC Alone (3. Ciprofloxacin, S. maltophilia 34): >32 µg/mL
Peptide MIC Alone (3. Ciprofloxacin, S. maltophilia 35): >32 µg/mL
Peptide MIC Alone (4. Gentamicin, A. baumannii ABI001): 8 µg/mL
Peptide MIC Alone (4. Gentamicin, A. baumannii ABI002): 8 µg/mL
Peptide MIC Alone (4. Gentamicin, P. aeruginosa PA041): 64 µg/mL
Peptide MIC Alone (4. Gentamicin, S. maltophilia SMA016): >128 µg/mL
Peptide MIC Alone (4. Gentamicin, S. maltophilia SMA017): 16 µg/mL
Amikacin MIC + Peptide (A. baumannii ABI001): 8 µg/mL
Gentamicin MIC + Peptide (A. baumannii ABI001): 16 µg/mL
Peptide MIC + Amikacin (A. baumannii ABI001): 2 µg/mL
Peptide MIC + Gentamicin (A. baumannii ABI001): 2 µg/mL
Ceftriaxone MIC + Peptide (A. baumannii ABI002): 16 µg/mL
Gentamicin MIC + Peptide (A. baumannii ABI002): 0.5 µg/mL
Peptide MIC + Ceftriaxone (A. baumannii ABI002): 2 µg/mL
Peptide MIC + Gentamicin (A. baumannii ABI002): 4 µg/mL
Amikacin MIC + Peptide (A. baumannii ABI003): 2 µg/mL
Peptide MIC + Amikacin (A. baumannii ABI003): 2 µg/mL
Ceftriaxone MIC + Peptide (A. baumannii ABI005): 8 µg/mL
Peptide MIC + Ceftriaxone (A. baumannii ABI005): 0.125 µg/mL
Ciprofloxacin MIC + Peptide (A. calcoaceticus 1): 0.25 µg/mL
Peptide MIC + Ciprofloxacin (A. calcoaceticus 1): 1 µg/mL
Ciprofloxacin MIC + Peptide (A. calcoaceticus 6): 0.25 µg/mL
Peptide MIC + Ciprofloxacin (A. calcoaceticus 6): 16 µg/mL
Peptide MIC + Piperacillin (A. calcoaceticus 7): 8 µg/mL
Piperacillin MIC + Peptide (A. calcoaceticus 7): 4 µg/mL
Peptide MIC Alone (A. calcoaceticus 7, Piperacillin section): >32 µg/mL
Peptide MIC + Piperacillin (A. calcoaceticus 8): 8 µg/mL
Piperacillin MIC + Peptide (A. calcoaceticus 8): 4 µg/mL
Peptide MIC Alone (A. calcoaceticus 8, Piperacillin section): >32 µg/mL
Ceftriaxone MIC + Peptide (B. cepacia BC003): 8 µg/mL
Peptide MIC + Ceftriaxone (B. cepacia BC003): 0.125 µg/mL
Ciprofloxacin MIC + Peptide (E. cloacae 13): 0.25 µg/mL
Peptide MIC + Ciprofloxacin (E. cloacae 13): 4 µg/mL
Peptide MIC + Piperacillin (E. cloacae 13): 8 µg/mL
Piperacillin MIC + Peptide (E. cloacae 13): 4 µg/mL
Peptide MIC Alone (E. cloacae 13, Piperacillin section): >32 µg/mL
Ciprofloxacin MIC + Peptide (E. cloacae 15): 0.25 µg/mL
Peptide MIC + Ciprofloxacin (E. cloacae 15): 8 µg/mL
Ciprofloxacin MIC + Peptide (E. cloacae 16): 0.25 µg/mL
Peptide MIC + Ciprofloxacin (E. cloacae 16): 16 µg/mL
Ceftriaxone MIC + Peptide (E. cloacae ECL014): 32 µg/mL
Peptide MIC + Ceftriaxone (E. cloacae ECL014): 2 µg/mL
Ceftriaxone MIC + Peptide (E. cloacae ECL015): 4 µg/mL
Peptide MIC + Ceftriaxone (E. cloacae ECL015): 4 µg/mL
Mupirocin MIC + Peptide (E. coli ECO5): 30 µg/mL
Peptide MIC + Mupirocin (E. coli ECO5): 1 µg/mL
Peptide MIC Alone (E. coli ECO5, Mupirocin section): 8 µg/mL
Mupirocin MIC + Peptide (E. coli SBECO2): 30 µg/mL
Peptide MIC + Mupirocin (E. coli SBECO2): 1 µg/mL
Peptide MIC Alone (E. coli SBECO2, Mupirocin section): 8 µg/mL
MBI 26 Alone (E. faecalis 97040 VanB): 64 µg/mL
MBI 26 + Teicoplanin (E. faecalis 97040 VanB): 8 µg/mL
MBI 26 Alone (E. faecalis 97041 VanB): 64 µg/mL
MBI 26 + Teicoplanin (E. faecalis 97041 VanB): 8 µg/mL
MBI 26 Alone (E. faecalis 97042 VanB): 64 µg/mL
MBI 26 + Teicoplanin (E. faecalis 97042 VanB): 8 µg/mL
MBI 26 Alone (E. faecalis 97043 VanB): 64 µg/mL
MBI 26 + Teicoplanin (E. faecalis 97043 VanB): 8 µg/mL
Peptide MIC + Vancomycin (E. faecalis EFS005): 16 µg/mL
Peptide MIC Alone (E. faecalis EFS005): >128 µg/mL
Vancomycin MIC + Peptide (E. faecalis EFS005): 4 µg/mL
Peptide MIC + Vancomycin (E. faecalis EFS012): 1 µg/mL
Peptide MIC Alone (E. faecalis EFS012): 16 µg/mL
Vancomycin MIC + Peptide (E. faecalis EFS012): 2 µg/mL
Peptide MIC + Vancomycin (E. faecalis EFS013): 1 µg/mL
Peptide MIC Alone (E. faecalis EFS013): 16 µg/mL
Vancomycin MIC + Peptide (E. faecalis EFS013): 2 µg/mL
MBI 26 Alone (E. faecium 97001 VanB): 64 µg/mL
MBI 26 + Teicoplanin (E. faecium 97001 VanB): 4 µg/mL
MBI 26 Alone (E. faecium 97002 VanB): 64 µg/mL
MBI 26 + Teicoplanin (E. faecium 97002 VanB): 1 µg/mL
MBI 26 Alone (E. faecium 97003 VanB): 64 µg/mL
MBI 26 + Teicoplanin (E. faecium 97003 VanB): 1 µg/mL
MBI 26 Alone (E. faecium 97005 VanB): 64 µg/mL
MBI 26 + Teicoplanin (E. faecium 97005 VanB): 2 µg/mL
MBI 26 Alone (E. faecium 97006 VanB): 64 µg/mL
MBI 26 + Teicoplanin (E. faecium 97006 VanB): 4 µg/mL
MBI 26 Alone (E. faecium 97007 VanB): 64 µg/mL
MBI 26 + Teicoplanin (E. faecium 97007 VanB): 1 µg/mL
MBI 26 Alone (E. faecium 97008 VanB): 64 µg/mL
MBI 26 + Teicoplanin (E. faecium 97008 VanB): 4 µg/mL
MBI 26 Alone (E. faecium 97009 VanB): 32 µg/mL
MBI 26 + Teicoplanin (E. faecium 97009 VanB): 1 µg/mL
MBI 26 Alone (E. faecium 97010 VanB): 64 µg/mL
MBI 26 + Teicoplanin (E. faecium 97010 VanB): 4 µg/mL
MBI 26 Alone (E. faecium 97011 VanB): 64 µg/mL
MBI 26 + Teicoplanin (E. faecium 97011 VanB): 4 µg/mL
MBI 26 Alone (E. faecium 97012 VanB): 64 µg/mL
MBI 26 + Teicoplanin (E. faecium 97012 VanB): 4 µg/mL
MBI 26 Alone (E. faecium 97013 VanB): 64 µg/mL
MBI 26 + Teicoplanin (E. faecium 97013 VanB): 8 µg/mL
MBI 26 Alone (E. faecium 97014 VanB): 64 µg/mL
MBI 26 + Teicoplanin (E. faecium 97014 VanB): 4 µg/mL
MBI 26 Alone (E. faecium 97015 VanB): 64 µg/mL
MBI 26 + Teicoplanin (E. faecium 97015 VanB): 4 µg/mL
MBI 26 Alone (E. faecium 97016 VanB): 64 µg/mL
MBI 26 + Teicoplanin (E. faecium 97016 VanB): 4 µg/mL
Peptide MIC + Vancomycin (E. faecium EFM010): 8 µg/mL
Peptide MIC Alone (E. faecium EFM010): 32 µg/mL
Vancomycin MIC + Peptide (E. faecium EFM010): 2 µg/mL
Peptide MIC + Vancomycin (E. faecium EFM011): 8 µg/mL
Peptide MIC Alone (E. faecium EFM011): 32 µg/mL
Vancomycin MIC + Peptide (E. faecium EFM011): 2 µg/mL
Peptide MIC + Vancomycin (E. faecium EFM012): 16 µg/mL
Peptide MIC Alone (E. faecium EFM012): 64 µg/mL
Vancomycin MIC + Peptide (E. faecium EFM012): 2 µg/mL
Peptide MIC + Vancomycin (E. faecium EFM014): 8 µg/mL
Peptide MIC Alone (E. faecium EFM014): 32 µg/mL
Vancomycin MIC + Peptide (E. faecium EFM014): 4 µg/mL
Peptide MIC + Vancomycin (E. faecium EFM016): 4 µg/mL
Peptide MIC Alone (E. faecium EFM016): 8 µg/mL
Vancomycin MIC + Peptide (E. faecium EFM016): 1 µg/mL
Peptide MIC + Piperacillin (H. influenzae 1): 8 µg/mL
Piperacillin MIC + Peptide (H. influenzae 1): 32 µg/mL
Peptide MIC Alone (H. influenzae 1, Piperacillin section): >128 µg/mL
Peptide MIC + Piperacillin (H. influenzae 2): 2 µg/mL
Piperacillin MIC + Peptide (H. influenzae 2): 64 µg/mL
Peptide MIC Alone (H. influenzae 2, Piperacillin section): >128 µg/mL
Ceftriaxone MIC + Peptide (K. pneumoniae KP003): 4 µg/mL
Peptide MIC + Ceftriaxone (K. pneumoniae KP003): 1 µg/mL
Peptide MIC + Piperacillin (P. aeruginosa 7): 32 µg/mL
Piperacillin MIC + Peptide (P. aeruginosa 7): 32 µg/mL
Peptide MIC Alone (P. aeruginosa 7, Piperacillin section): >128 µg/mL
Ciprofloxacin MIC + Peptide (P. aeruginosa 23): 0.5 µg/mL
Peptide MIC + Ciprofloxacin (P. aeruginosa 23): 2 µg/mL
Peptide MIC + Piperacillin (P. aeruginosa 23): 32 µg/mL
Piperacillin MIC + Peptide (P. aeruginosa 23): 4 µg/mL
Peptide MIC Alone (P. aeruginosa 23, Piperacillin section): >64 µg/mL
Ciprofloxacin MIC + Peptide (P. aeruginosa 24): 0.5 µg/mL
Peptide MIC + Ciprofloxacin (P. aeruginosa 24): 2 µg/mL
Peptide MIC + Piperacillin (P. aeruginosa 28): 32 µg/mL
Piperacillin MIC + Peptide (P. aeruginosa 28): 16 µg/mL
Peptide MIC Alone (P. aeruginosa 28, Piperacillin section): >128 µg/mL
Peptide MIC + Piperacillin (P. aeruginosa 41): 4 µg/mL
Piperacillin MIC + Peptide (P. aeruginosa 41): 32 µg/mL
Peptide MIC Alone (P. aeruginosa 41, Piperacillin section): 128 µg/mL
Mupirocin MIC + Peptide (P. aeruginosa PA2): 10 µg/mL
Peptide MIC + Mupirocin (P. aeruginosa PA2): 64 µg/mL
Peptide MIC Alone (P. aeruginosa PA2, Mupirocin section): 128 µg/mL
Mupirocin MIC + Peptide (P. aeruginosa PA4): 100 µg/mL
Peptide MIC + Mupirocin (P. aeruginosa PA4): 32 µg/mL
Peptide MIC Alone (P. aeruginosa PA4, Mupirocin section): >128 µg/mL
Ceftriaxone MIC + Peptide (P. aeruginosa PA008): 8 µg/mL
Peptide MIC + Ceftriaxone (P. aeruginosa PA008): 0.125 µg/mL
Ceftriaxone MIC + Peptide (P. aeruginosa PA024): 4 µg/mL
Peptide MIC + Ceftriaxone (P. aeruginosa PA024): 32 µg/mL
Gentamicin MIC + Peptide (P. aeruginosa PA041): 1 µg/mL
Peptide MIC + Gentamicin (P. aeruginosa PA041): 32 µg/mL
Ciprofloxacin MIC + Peptide (P. aeruginosa PA41): 1 µg/mL
Peptide MIC + Ciprofloxacin (P. aeruginosa PA41): 32 µg/mL
Ciprofloxacin MIC + Peptide (P. aeruginosa PA77): 0.125 µg/mL
Peptide MIC + Ciprofloxacin (P. aeruginosa PA77): 64 µg/mL
Peptide MIC + Piperacillin (S. aureus 19 MRSA): 1 µg/mL
Piperacillin MIC + Peptide (S. aureus 19 MRSA): 16 µg/mL
Peptide MIC Alone (S. aureus 19 MRSA, Piperacillin section): 32 µg/mL
Ciprofloxacin MIC + Peptide (S. aureus SA11): 32 µg/mL
Peptide MIC + Ciprofloxacin (S. aureus SA11): 0.125 µg/mL
Ceftriaxone MIC + Peptide (S. aureus SA025 MRSA): 0.125 µg/mL
Peptide MIC + Ceftriaxone (S. aureus SA025 MRSA): 0.5 µg/mL
